Laboratory results as given in patent US6177438A, “Morphinan derivatives and pharmaceutical use thereof” (priority 1993, dated 2001).

What was measured:
μ receptor [1] = biological target: T1, μ receptor (Mus musculus, UniProt P42866); test: Opioid activity test using an extracted mouse vas deferens preparation, Ke with naloxone; set-up: species or system male ddy mouse; conditions: naloxone added
T1 construct: naloxone as mu antagonist (printed 'agonist')

δ receptor = biological target: T2, δ receptor (Mus musculus, UniProt P32300); set-up: species or system male ddy mouse; conditions: mouse vas deferens, δ, NTI added
T2 construct: The vas deferens extracted from the animal was suspended in a Magnus tube; from tissue; host or cells: mouse (male ddy) vas deferens
T2 sequence (P32300 whole entry): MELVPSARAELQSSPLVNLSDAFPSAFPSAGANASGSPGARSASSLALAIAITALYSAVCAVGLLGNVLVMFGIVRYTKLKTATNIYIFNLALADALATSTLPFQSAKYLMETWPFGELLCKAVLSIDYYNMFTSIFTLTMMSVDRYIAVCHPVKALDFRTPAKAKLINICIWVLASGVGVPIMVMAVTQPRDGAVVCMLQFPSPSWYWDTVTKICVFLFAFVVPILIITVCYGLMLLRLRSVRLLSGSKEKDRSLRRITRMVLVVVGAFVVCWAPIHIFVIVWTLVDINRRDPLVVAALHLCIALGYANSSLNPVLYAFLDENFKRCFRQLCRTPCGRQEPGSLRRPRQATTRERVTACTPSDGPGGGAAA

[2] = system: extracted mouse vas deferens preparation; test: Opioid activity test using an extracted mouse vas deferens preparation (suppression of electrically induced contractions); set-up: species or system male ddy mouse; conditions: electrical stimulus 0.1 Hz, 37° C.
Outline: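 Male ddY mouse vas deferens in Krebs-Henseleit at 37° C, 5% CO2/95% O2, field-stimulated at 0.1 Hz, 5.0 ms; isometric contractions recorded. After adding naloxone, NTI or norBNI, test compound was added cumulatively after ~20 min; Ke derived from the difference in agonist efficacies.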

[3] = system: acetic acid-induced writhing in ddy mice; test: animal or person; type: in vivo, 5 week old ddy mice; conditions: Mus musculus, sc, s.c. 15 minutes before acetic acid, read-out: ED50
Protocol: 5 week old ddy mice were used in this test. After intraperitoneal administration of 0.1 ml of 0.6% aqueous acetic acid per 10 g of body weight, the number of writhing reactions that occurred in 10 minutes starting 10 minutes after administration was evaluated for the indicator. The test drug was administered subcutaneously into the backs of the animals 15 minutes before administration of acetic acid.

[4] = system: cultured nerve cells (cerebral cortex); conditions: 10 mM glutamic acid, 24 hours
[5] = system: cultured nerve cells (cerebral cortex); test: cells; conditions: Rattus norvegicus, Cerebral cortex neuron, 24 h, read-out: ED50 (protection against glutamic acid toxicity)
κ receptor [6] = biological target: T3, κ receptor (Mus musculus, UniProt P33534); test: Opioid activity test using an extracted mouse vas deferens preparation, Ke with norBNI; set-up: species or system male ddy mouse
T3 construct: from tissue; host or cells: mouse (male ddy) vas deferens
T3 sequence (P33534 whole entry): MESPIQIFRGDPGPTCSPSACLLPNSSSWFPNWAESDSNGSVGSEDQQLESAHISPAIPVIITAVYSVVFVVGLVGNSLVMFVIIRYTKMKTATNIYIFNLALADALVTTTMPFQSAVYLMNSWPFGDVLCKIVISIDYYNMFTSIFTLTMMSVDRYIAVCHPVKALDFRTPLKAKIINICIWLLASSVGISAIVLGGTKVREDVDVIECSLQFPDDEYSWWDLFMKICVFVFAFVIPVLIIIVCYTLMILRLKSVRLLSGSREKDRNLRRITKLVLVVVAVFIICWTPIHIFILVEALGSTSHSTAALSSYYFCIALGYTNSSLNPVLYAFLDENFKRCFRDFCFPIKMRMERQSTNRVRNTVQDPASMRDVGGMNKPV

[7] = Diuretic action (urine output for 5 hours after physiological saline loading in rats); type: in vivo, male Wistar rats; conditions: Rattus norvegicus, sc, 5 hours after saline 20 ml/kg p.o.
Outline: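 Male Wistar rats (7-8 weeks), water withheld 1 h, bladder emptied, drug given subcutaneously; 30 min later 20 ml/kg saline orally. Urine collected 5 h after saline loading in metabolic cages; ED200 and ED500 are doses giving urine output of 200 and 500 relative to non-dosed group at 100.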

κ receptor [8] = biological target: T4, κ receptor (Cavia porcellus, UniProt P41144); test: Opioid activity test using an extracted guinea pig ileum preparation, Ke with norBNI; set-up: species or system male Hartley guinea pig; conditions: norBNI added
T4 construct: After sacrificing the guinea pig and extracting the ileum; from tissue; host or cells: guinea pig (male Hartley) ileum, longitudinal muscle
T4 sequence (P41144 whole entry): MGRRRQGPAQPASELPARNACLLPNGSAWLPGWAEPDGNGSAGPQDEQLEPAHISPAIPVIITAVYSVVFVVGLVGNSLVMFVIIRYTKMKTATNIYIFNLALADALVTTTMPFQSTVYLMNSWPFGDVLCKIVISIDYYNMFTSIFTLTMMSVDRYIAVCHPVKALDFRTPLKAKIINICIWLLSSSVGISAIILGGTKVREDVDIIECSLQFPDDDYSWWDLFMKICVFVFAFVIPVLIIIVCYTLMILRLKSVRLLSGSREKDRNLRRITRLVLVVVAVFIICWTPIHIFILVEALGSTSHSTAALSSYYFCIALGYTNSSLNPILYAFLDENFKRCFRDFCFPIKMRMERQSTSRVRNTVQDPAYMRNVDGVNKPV
Protocol: (§1) A male Hartley guinea pig was used in this test. After sacrificing the guinea pig and extracting the ileum, the lumen was washed with nutrient solution and only the longitudinal muscle was isolated. This longitudinal muscle was suspended in a Magnus tube filled with Krebes-Henseleit solution (NaCl 118 mM; KCl 4.7 mM; CaCl2 2.5 mM; KH2 PO4 1.2 mM; NaHCO3 25 mM; MgSO4 1.2 mM; Glucose 10 mM) warmed to 37° C. and ventilated with 5% carbon dioxide and 95% oxygen. Electrical stimulus was performed at 0.1 Hz for 5.0 ms by means of ring-shaped platinum electrodes located above and below. Tissue contractions were recorded on a polygraph using an isometric transducer.
(§2) After adequately washing with nutrient solution and the contraction reaction stabilized, the μ agonist, naloxone, or the κ agonist, norBNI, was added after which the test compound was again cumulatively added after roughly 20 minutes. The Ke value was calculated using the following calculation formula from the difference in the efficacies of both agonists.
(§3) Ke=[Conc. of added agonist]/(IC50 ratio-1)
(§4) IC50 ratio=IC50 in the presence of agonist/IC50 in the absence of agonist

μ receptor [9] = test: Opioid activity test using an extracted guinea pig ileum preparation, Ke with naloxone; set-up: species or system male Hartley guinea pig; conditions: naloxone added
Protocol: as §1, §2, §3, §4

[10] = system: extracted guinea pig ileum preparation; test: Opioid activity test using an extracted guinea pig ileum preparation (suppression of electrically induced contractions); set-up: species or system male Hartley guinea pig; conditions: Cavia porcellus, electrical stimulus 0.1 Hz, 37° C.
Protocol: as §1, §2

T1 sequence (P42866 whole entry): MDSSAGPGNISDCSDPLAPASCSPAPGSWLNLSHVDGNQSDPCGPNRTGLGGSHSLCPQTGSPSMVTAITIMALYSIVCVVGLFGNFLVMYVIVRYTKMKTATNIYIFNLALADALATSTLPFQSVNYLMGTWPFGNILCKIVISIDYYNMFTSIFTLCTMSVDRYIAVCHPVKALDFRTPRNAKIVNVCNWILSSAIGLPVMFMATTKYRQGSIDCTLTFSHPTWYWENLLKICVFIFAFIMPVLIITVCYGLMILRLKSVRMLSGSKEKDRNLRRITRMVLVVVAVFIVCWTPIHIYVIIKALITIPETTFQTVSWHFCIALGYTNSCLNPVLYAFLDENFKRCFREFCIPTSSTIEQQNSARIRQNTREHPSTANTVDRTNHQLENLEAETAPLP

CN(C(=O)Cc1ccc(Cl)c(Cl)c1)[C@H]1CC[C@@]2(O)[C@H]3Cc4ccc(O)c5c4[C@@]2(CCN3CC2CC2)[C@H]1O5 [Compound 1, 17-cyclopropylmethyl-4,5α-epoxy-3,14β-dihydroxy-6α-(N-methyl-3,4-dichlorophenylacetamido)morphinan]
Ke, Naloxone (μ receptor [1]): 53 nM | Ke, NTI (δ receptor): 17.3 nM | IC50 [2]: 0.395 nM | ED50 [3]: 0.017 mg/kg | Protective action against cytotoxicity caused by glutamic acid (in words) [4]: clearly demonstrated action that protects nerve cells from cytotoxicity caused by glutamic acid | EC50 [5]: 500 nM | receptor selectivity of agonist (κ) (κ receptor [6]; in words): selective agonists for κ receptors | Ke, norBNI (κ receptor [6]; κ, norBNI added): 0.548 nM | ED (200% urine output) ([7]; dose giving urine output of 200 (non-dosed group = 100)): 0.0027 mg/kg | ED (500% urine output) ([7]; dose giving urine output of 500 (non-dosed group = 100)): 0.0457 mg/kg | Ke, norBNI (κ receptor [8]): 0.16 nM | Ke, Naloxone (μ receptor [9]): 650 nM | IC50 [10]: 0.026 nM
